This is an account of results in US5250679A, “Nonpeptidyl platelet aggregation inhibitors having specificity for the GPIIb III receptor” (Genentech, Inc., priority 1992, dated 1993).

The target in one test is T1, GP IIb IIIa (Homo sapiens, UniProt P05106+P08514).
T1 construct: from tissue; host or cells: outdated human platelets
Put plainly: Fibrinogen-GP IIb IIIa Receptor ELISA Binding Assay (Fg/IIbIIIa). In short, it runs like this:
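Purified human platelet GP IIb IIIa binding to immobilised purified fibrinogen was run with compound at room temperature for 1 h. IC50 values were determined.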

Test [1] has as its target T2, Human Vitronectin receptor (av b3) (Homo sapiens, UniProt P05106+P06756).
T2 construct: is purified from human placenta; from tissue; host or cells: human placenta
Put plainly: Human Vitronectin-Vitronectin Receptor (av b3) ELISA Assay (Vn/VnR). Format: binding. Particulars: Example 30, G # table. (ELISA stands for enzyme-linked immunosorbent assay.)
Source text: Human vitronectin (Vn) is isolated from human plasma and purified by affinity chromatography by the method of Yatohgo et. al., (Cell Structure and Function 13: 281-292 [1988]).
Human vitronection receptor (VnR) is purified from human placenta by the method of Pytela et al., (Methods Enzymol., 144: 475 [1987]). Alternatively the av b3 receptor can be purified from some cell lines (e.g., human embryonic kidney 293 cells) transfected with DNA sequences for both the av and b3 subunits. The subunits are purified by employing octylglucoside extraction followed by Con-A, Heparin-Sepharose, and S-300 Chromatography.
This mouse Mab is specific for the b3 subunit of the vitronectin receptor.
Rabbit Fab 2 anti-mouse Fc fragment horse radish peroxidase conjugate (anti-MuFc HRP) is obtained from PelFreeze (cat. no. 715305-1).
Maxisorp microtiter plates are coated with 2 mg/ml human vitronectin dissolved in PBS (50 ml/well) and stored overnight at 4° C. The plates are washed two times with PBS-0.05% Tween-20 (wash buffer) and blocked by incubating with about 150 ml/well of assay buffer (1%, BSA [RIA grade or better] in 50 mM Tris-HCl, 100 mM NaCl, 1 mM MgCl2, CaCl2, MnCl2 pH 7.4) for 60 minutes. […] The blocked plates are emptied and 25 ml/well of inhibitor or standard solution is added to each well. Twenty-five ml of a 30 mg/ml solution of purified av b3 in assay buffer is pipetted into the coated plate. The final concentration of receptor in the assay well is about 15 mg/ml. The plate is incubated on a shaker for 60 minutes. Meanwhile, for each microtite plate, 6 ml buffer solution containing 1.5 mg/ml of mouse monoclonal antibody specific for b3 is prepared. To this solution is added ml of the secondary antibody, which is anti-mouse-Fc-HRP antibody conjugate. For example, for one plate, prepare 6 ml of a 1.5 mg/ml mouse Mab solution to which is added 1 ml of anti-mouse-Fc-HRP antibody stock, (this represents a 1:6000 dilution of the antibody-HRP conjugate). This mixture is allowed to incubate during the receptor-inhibitor incubation. The assay plates are washed 4 times with PBS-Tween and 50 ml/well of the antibody mixture is then pipetted into the plate for a 60 minute incubation. The plate is washed 4 times and the color reaction is developed with 50 ml/well of 0.67 mg/ml o-phenyldiamine in PBS containing 0.012% H2 O2. Alternatively, 16 mM citric acid, 50 mM Na2 PO4 at pH 5.0 can be used as a substrate buffer. The reaction is stopped with 50 ml/well 1 M H2 SO4. The plates are read at 492-405 nm and the data analyzed by four-parameter fit.

Test [2] relates to human platelet rich plasma (PRP). Description: In Vitro Human Platelet Aggregation Assay (PA). Format: cell-based. On the procedure: In addition to the GPIIb IIIa ELISA assay, platelet aggregation assays may be performed in human platelet rich plasma (PRP). […] The blood is centrifuged at 160×g for 10 min at 22° C. and then allowed to stand for 5 min after which the PRP is decanted. Platelet poor plasma (PPP) is isolated from the remaining blood after centrifugation at 2000×g for 25 min. The platelet count of the PRP is adjusted to ca. 300,000 per microliter with PPP.
A 225 mL aliquot of PRP plus 25 mL of either a dilution of the test sample or a control (PBS) is incubated for 5 min in a Chrono-log Whole Blood Aggregometer at 25° C. An aggregating agent (collagen, 1 mg/ml; U46619, 100 ng/ml; or ADP, 8 mM) is added and the platelet aggregation recorded.
Platelet aggregation assays are performed in human platelet rich plasma (PRP). […] The blood is centrifuged at 160×g for 10 minutes at 22° C. and allowed to stand for 5 minutes after which the PRP is decanted. Platelet poor plasma (PPP) is isolated from the remaining blood after centrifugation at 2000×g for 25 minutes. The platelet count of the PRP is diluted to about 300,000 platelets per microliter with PPP.
A 225 ml aliquot of PRP plus 25 ml of either a dilution of the test inhibitor sample or a control (PBS) is incubated for 5 minutes in a Chrono-log Whole Blood Aggregometer at 25° C. An aggregating agent (collagen, 1 mg/ml; U46619, 100 ng/ml; or ADP, 17 mM) is added and the transmission is recorded.

[3] abbreviates: Example 29, Cmpd # 1-105, read-out: IC50 Fg/IIbI.
[4] abbreviates: Example 30, G # table, read-out: IC50 (μM) Fg/IIbIIIa.
Setting [5] is: Homo sapiens, Platelet, citrate, read-out: PA IC50 (μM) (citrate).
Setting [6] is: Homo sapiens, Platelet, heparin, read-out: PA IC50 (μM) (heparin).
Setting [7] is: Examples 29 and 30, Cmpd # tables, read-out: IC50 (μM) Fg/IIbIIIa.

Where a name gives a salt, the structure may show the parent alone. Read-outs that look alike come from different tables or passages of the source.

T1 sequence (P08514 32-887 limits assumed): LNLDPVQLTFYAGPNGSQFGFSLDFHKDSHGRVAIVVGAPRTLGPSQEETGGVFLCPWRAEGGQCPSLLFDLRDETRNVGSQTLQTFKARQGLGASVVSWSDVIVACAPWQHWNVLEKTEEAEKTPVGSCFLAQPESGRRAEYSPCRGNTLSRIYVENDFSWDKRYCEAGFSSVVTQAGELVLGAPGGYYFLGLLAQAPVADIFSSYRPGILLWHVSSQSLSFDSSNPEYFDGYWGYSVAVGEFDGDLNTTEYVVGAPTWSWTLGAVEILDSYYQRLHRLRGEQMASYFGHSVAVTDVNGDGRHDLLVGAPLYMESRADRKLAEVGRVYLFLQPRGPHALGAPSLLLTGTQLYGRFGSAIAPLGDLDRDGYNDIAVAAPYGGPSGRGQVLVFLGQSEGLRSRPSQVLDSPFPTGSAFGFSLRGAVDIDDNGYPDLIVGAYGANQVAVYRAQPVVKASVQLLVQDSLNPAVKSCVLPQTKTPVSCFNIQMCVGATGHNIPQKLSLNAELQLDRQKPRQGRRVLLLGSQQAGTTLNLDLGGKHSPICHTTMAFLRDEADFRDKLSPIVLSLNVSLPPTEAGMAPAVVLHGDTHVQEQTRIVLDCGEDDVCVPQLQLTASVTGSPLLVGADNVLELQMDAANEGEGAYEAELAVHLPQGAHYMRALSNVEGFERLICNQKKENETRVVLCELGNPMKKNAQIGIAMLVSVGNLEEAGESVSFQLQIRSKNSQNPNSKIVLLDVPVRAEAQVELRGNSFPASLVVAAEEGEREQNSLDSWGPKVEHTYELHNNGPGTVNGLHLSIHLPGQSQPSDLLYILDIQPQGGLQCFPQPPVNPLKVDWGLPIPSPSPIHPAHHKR
T1 sequence (P08514 891-1039 partner limits assumed): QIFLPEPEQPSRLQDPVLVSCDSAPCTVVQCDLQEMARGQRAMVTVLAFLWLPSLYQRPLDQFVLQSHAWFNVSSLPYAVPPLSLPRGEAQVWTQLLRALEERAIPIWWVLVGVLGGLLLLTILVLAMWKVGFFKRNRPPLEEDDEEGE
T1 sequence (P05106 27-788): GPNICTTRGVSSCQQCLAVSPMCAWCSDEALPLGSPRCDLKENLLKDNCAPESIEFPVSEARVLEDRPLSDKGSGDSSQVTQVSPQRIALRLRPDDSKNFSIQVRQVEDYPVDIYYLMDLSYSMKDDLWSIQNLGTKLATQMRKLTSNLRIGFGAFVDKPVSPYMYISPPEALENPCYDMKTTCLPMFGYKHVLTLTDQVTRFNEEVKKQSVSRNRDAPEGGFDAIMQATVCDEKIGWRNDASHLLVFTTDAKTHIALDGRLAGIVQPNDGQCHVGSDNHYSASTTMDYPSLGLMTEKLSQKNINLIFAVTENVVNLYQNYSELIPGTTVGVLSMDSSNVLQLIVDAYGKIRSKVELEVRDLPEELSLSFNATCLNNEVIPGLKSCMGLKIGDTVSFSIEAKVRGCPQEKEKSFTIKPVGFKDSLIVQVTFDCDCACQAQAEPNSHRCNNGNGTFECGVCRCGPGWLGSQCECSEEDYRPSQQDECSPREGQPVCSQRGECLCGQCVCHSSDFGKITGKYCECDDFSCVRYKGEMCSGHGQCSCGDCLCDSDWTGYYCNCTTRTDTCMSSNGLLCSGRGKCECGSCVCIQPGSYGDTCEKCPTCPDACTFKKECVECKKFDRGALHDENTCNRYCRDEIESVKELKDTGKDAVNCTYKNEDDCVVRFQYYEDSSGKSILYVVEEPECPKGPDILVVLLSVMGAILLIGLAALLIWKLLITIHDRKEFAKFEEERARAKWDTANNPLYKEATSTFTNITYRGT
T2 sequence (P06756 31-889 limits assumed): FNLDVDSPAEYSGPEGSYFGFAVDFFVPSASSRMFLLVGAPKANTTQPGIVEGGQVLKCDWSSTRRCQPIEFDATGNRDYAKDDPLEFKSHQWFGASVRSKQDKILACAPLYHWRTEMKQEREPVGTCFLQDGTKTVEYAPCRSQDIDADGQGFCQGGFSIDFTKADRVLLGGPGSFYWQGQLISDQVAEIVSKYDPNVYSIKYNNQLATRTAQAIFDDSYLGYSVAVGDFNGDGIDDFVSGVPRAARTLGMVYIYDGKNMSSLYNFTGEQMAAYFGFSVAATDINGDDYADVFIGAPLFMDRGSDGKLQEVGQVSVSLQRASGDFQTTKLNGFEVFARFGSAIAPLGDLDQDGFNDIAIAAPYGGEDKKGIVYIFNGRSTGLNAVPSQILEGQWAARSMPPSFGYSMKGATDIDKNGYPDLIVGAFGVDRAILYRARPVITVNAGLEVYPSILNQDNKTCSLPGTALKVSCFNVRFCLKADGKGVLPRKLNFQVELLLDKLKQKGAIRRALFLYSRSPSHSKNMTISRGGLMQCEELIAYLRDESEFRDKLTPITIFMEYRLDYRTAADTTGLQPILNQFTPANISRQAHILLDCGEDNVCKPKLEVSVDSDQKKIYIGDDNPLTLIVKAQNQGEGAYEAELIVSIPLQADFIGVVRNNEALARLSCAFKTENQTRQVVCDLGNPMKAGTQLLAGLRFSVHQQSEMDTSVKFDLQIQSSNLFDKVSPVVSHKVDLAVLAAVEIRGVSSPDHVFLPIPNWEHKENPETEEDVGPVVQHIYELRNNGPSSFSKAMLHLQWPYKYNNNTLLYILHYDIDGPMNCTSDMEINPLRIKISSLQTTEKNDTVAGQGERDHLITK
T2 sequence (P06756 891-1048 partner limits assumed): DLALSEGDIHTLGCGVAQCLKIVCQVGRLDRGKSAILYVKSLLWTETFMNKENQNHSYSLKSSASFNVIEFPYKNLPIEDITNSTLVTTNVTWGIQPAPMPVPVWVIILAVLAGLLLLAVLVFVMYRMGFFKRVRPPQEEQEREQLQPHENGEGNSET
T2 sequence (P05106 27-788): as the sequence (P05106 27-788) above

Consider `N=C(N)NCCCc1ccc2c(c1)C(=O)N(CCC(=O)O)CC(=O)N2` [Cmpd 2], for which the IC50 is 0.714 µM at GP IIb IIIa (setting [3]), 0.714 µM on GP IIb IIIa (setting [4]), above 10 µM in test [1] and above 5 µM in test [2] (setting [5]).
Take `CN1C(=O)CN(CCC(=O)O)C(=O)c2cc(C#CCCNC(=N)N)ccc21` [Cmpd 22]: the IC50 at GP IIb IIIa (setting [3]) was 0.14 µM; at GP IIb IIIa (setting [4]) it was 0.14 µM; in test [1], above 10 µM; in test [2] (setting [5]), 8.96 µM.
As to `CN1C(=O)CN(CCC(=O)O)C(=O)c2cc(C#CCCCNC(=N)N)ccc21` [Cmpd 34, 1-methyl-4-(2-carboxyethyl)-7-(5-guanidino-1-pentynyl)-3,4-dihydro-1H-1,4-benzodiazepine-2,5-dione trifluroacetate], the IC50 on GP IIb IIIa (setting [3]) was 0.0036 µM; at GP IIb IIIa (setting [4]), 0.0036 µM; in test [1], above 10 µM; in test [2] (setting [5]), 3.1 µM; in test [2] (setting [6]) it was 7.5 µM.
Take `NCCCC#Cc1ccc2c(c1)C(=O)N(CCC(=O)O)CC(=O)N2Cc1cccc([N+](=O)[O-])c1` [Cmpd 35, 1-(3-nitrobenzyl)-4-(2-carboxyethyl)-7-(5-amino-1-pentynyl)-3,4-dihydro-1H-1,4-benzodiazepine-2,5-dione trifluroacetate]: the IC50 at GP IIb IIIa (setting [3]) is 0.013 µM; at GP IIb IIIa (setting [4]), 0.013 µM; in test [1] it was above 10 µM; in test [2] (setting [5]), 2.4 µM; in test [2] (setting [6]), 8 µM; in test [2] (heparin, read-out: PA IC50 (μM) (heparin)), 9.53 µM.
In the case of `CN1C(=O)CN(CCC(=O)O)C(=O)c2cc(C#CCCCCNC(=N)N)ccc21` [Cmpd 42, 1-(methyl)-4-(2-carboxyethyl)-7-(6-guanidino-1-hexynyl)-3,4-dihydro-1H-1,4-benzodiazepine-2,5-dione trifluroacetate], the IC50 is 0.06 µM at GP IIb IIIa (setting [3]), 0.009 µM at GP IIb IIIa (setting [4]), above 10 µM in test [1] and 2.66 µM in test [2] (setting [5]).
Consider `CN1C(=O)CN(CCC(=O)O)C(=O)c2cc(C#Cc3ccc(CN)cc3)ccc21` [Cmpd 43, 1-(methyl)-4-(2-carboxyethyl)-7-[4-(aminomethyl)phenyl]ethynyl-3,4-dihydro-1H-1,4-benzodiazepine-2,5-dione trifluroacetate], for which the IC50 on GP IIb IIIa (setting [3]) is 0.012 µM; at GP IIb IIIa (setting [4]), 0.012 µM; in test [1] it was above 10 µM; in test [2] (setting [5]) it was 1.7 µM; in test [2] (setting [6]) it was 3.34 µM.
With `CN1C(=O)CN(CCC(=O)O)C(=O)c2cc(C#Cc3ccc(CNC(=N)N)cc3)ccc21` [Cmpd 44, 1-(methyl)-4-(2-carboxyethyl)-7-[4-(guanidinomethyl)phenyl]ethynyl-3,4-dihydro-1H-1,4-benzodiazepine-2,5-dione trifluroacetate], the IC50 is 0.012 µM at GP IIb IIIa (setting [3]); 0.012 µM on GP IIb IIIa (setting [4]); above 10 µM in test [1]; 8.8 µM in test [2] (setting [5]); 14.3 µM in test [2] (setting [6]).
Regarding `NCCCCC#Cc1ccc2c(c1)C(=O)N(CCC(=O)O)CC(=O)N2Cc1cccc([N+](=O)[O-])c1` [Cmpd 55, 1-(3-nitrobenzyl)-4-(2-carboxyethyl)-7-(6-amino-1-hexynyl)-3,4-dihydro-1H-1,4-benzodiazepine-2,5-dione trifuroacetate], the IC50 on GP IIb IIIa (setting [3]) was 0.008 µM; on GP IIb IIIa (setting [4]), 0.008 µM; in test [1], above 10 µM; in test [2] (setting [6]) it was 2.2 µM.
Take `N=C(N)NCCCCC#Cc1ccc2c(c1)C(=O)N(CCC(=O)O)CC(=O)N2Cc1cccc([N+](=O)[O-])c1` [Cmpd 56, 1-(3-nitrobenzyl)-4-(2-carboxyethyl)-7-(6-guanidino-1-hexynyl)-3,4-dihydro-1H-1,4-benzodiazepine-2,5-dione trifluroacetate]: the IC50 is 0.006 µM at GP IIb IIIa (setting [3]), 0.006 µM at GP IIb IIIa (setting [4]), above 10 µM in test [1] and 15 µM in test [2] (setting [6]).
For the molecule `NCCCCC#Cc1ccc2c(c1)C(=O)N(CCC(=O)O)CC(=O)N2Cc1ccc(Cl)cc1` [Cmpd 60], the IC50 is 0.014 µM on GP IIb IIIa (setting [3]), 0.014 µM at GP IIb IIIa (setting [4]), above 10 µM in test [1] and 2.12 µM in test [2] (setting [5]).
Take `N=C(N)NCCCCCc1ccc2c(c1)C(=O)N(CCC(=O)O)CC(=O)N2Cc1ccc(Cl)cc1` [Cmpd 63]: the IC50 at GP IIb IIIa (setting [3]) is 0.011 µM; on GP IIb IIIa (setting [4]) it was 0.011 µM; in test [1], above 10 µM; in test [2] (setting [5]) it was 2.55 µM.
`NCCCCCCc1ccc2c(c1)C(=O)N(CCC(=O)O)CC(=O)N2Cc1ccc(Cl)cc1` [Cmpd 64, 1-(4-chlorophenyl)methyl-4-(2-carboxyethyl)-7-(6-aminohexyl)-3,4-dihydro-1H-1,4-benzodiazapine-2,5-dione]: the IC50 at GP IIb IIIa (setting [3]) is 0.014 µM; at GP IIb IIIa (setting [4]), 0.014 µM; in test [1] it was above 10 µM; in test [2] (setting [5]), 1.2 µM; in test [2] (setting [6]), 4.76 µM.
Regarding `NCCCCCCCc1ccc2c(c1)C(=O)N(CCC(=O)O)CC(=O)N2Cc1ccc(Cl)cc1` [Cmpd 66], the IC50 at GP IIb IIIa (setting [3]) was 0.026 µM; at GP IIb IIIa (setting [4]), 0.026 µM; in test [1], above 10 µM; in test [2] (setting [5]), 3.88 µM.
For `NCCCCCc1ccc2c(c1)C(=O)N(CCC(=O)O)CC(=O)N2C(c1ccccc1)c1ccccc1` [Cmpd 68, 1-(diphenylmethyl)-4-(2-carboxyethyl)-7-(5-aminopentyl)-3,4-dihydro-1H-1,4-benzodiazepine-2,5-dione trifluoroacetate], the IC50 on GP IIb IIIa (setting [3]) is 0.02 µM; at GP IIb IIIa (setting [4]) it was 0.028 µM; in test [1], above 10 µM; in test [2] (setting [5]), 1.66 µM; in test [2] (setting [6]), 3.4 µM.
For `N=C(N)NCCCCCc1ccc2c(c1)C(=O)N(CCC(=O)O)CC(=O)N2C(c1ccccc1)c1ccccc1` [Cmpd 69, 1-(diphenylmethyl)-4-(2-carboxyethyl)-7-(5-guanidinopentyl)-3,4-dihydro-1H-1,4-benxodiazepine-2,5-dione trifluoroacetate], the IC50 is 0.082 µM at GP IIb IIIa (setting [3]); 0.082 µM on GP IIb IIIa (setting [4]); above 10 µM in test [1]; 2.09 µM in test [2] (setting [5]); 3.9 µM in test [2] (setting [6]).
On to `N=C(N)NCCCC#Cc1ccc2c(c1)C(=O)N(CCC(=O)O)CC(=O)N2C(c1ccccc1)c1ccccc1` [Cmpd 71], for which the IC50 on GP IIb IIIa (setting [3]) is 0.008 µM; on GP IIb IIIa (setting [4]), 0.008 µM; in test [1], above 10 µM; in test [2] (setting [5]), 0.34 µM; in test [2] (setting [6]), 0.95 µM.
Consider `N=C(N)NCCCCCCc1ccc2c(c1)C(=O)N(CCC(=O)O)CC(=O)N2Cc1cccc(NC(=O)CCCNC(=N)N)c1` [Cmpd 113], for which the figures for the IC50 (on GP IIb IIIa (setting [4]); at GP IIb IIIa (setting [7]); in test [2] (setting [5])) were 0.01 µM, 0.01 µM and 0.87 µM, respectively.
Consider `NCCCCCCc1ccc2c(c1)C(=O)N(CCC(=O)O)CC(=O)N2Cc1cccc(NC(=O)CCCCN)c1` [Cmpd 114], for which the IC50 at GP IIb IIIa (setting [4]) was 0.008 µM; on GP IIb IIIa (setting [7]) it was 0.008 µM; in test [2] (setting [5]) it was 0.31 µM.
In the case of `N=C(N)NCCCCCCc1ccc2c(c1)C(=O)N(CCC(=O)O)CC(=O)N2Cc1cccc(NC(=O)CCCCNC(=N)N)c1` [Cmpd 115], the IC50 was 0.018 µM at GP IIb IIIa (setting [4]), 0.013 µM on GP IIb IIIa (setting [7]) and 0.92 µM in test [2] (setting [5]).
As to `NCCCCCCc1ccc2c(c1)C(=O)N(CCC(=O)O)CC(=O)N2Cc1cccc(NC(=O)CCCCCN)c1` [Cmpd 116], the values for the IC50 (at GP IIb IIIa (setting [4]); at GP IIb IIIa (setting [7]); in test [2] (setting [5])) were 0.011 µM, 0.011 µM and 0.27 µM, respectively.
Consider `N=C(N)NCCCCCCc1ccc2c(c1)C(=O)N(CCC(=O)O)CC(=O)N2Cc1cccc(NC(=O)CCCCCNC(=N)N)c1` [Cmpd 117], for which the IC50 turned out to be 0.013 µM on GP IIb IIIa (setting [4]), 0.013 µM at GP IIb IIIa (setting [7]) and 0.64 µM in test [2] (setting [5]).
For the molecule `NCCCCCCc1ccc2c(c1)C(=O)N(CCC(=O)O)CC(=O)N2Cc1cccc(N)c1` [Cmpd 122], the IC50 at GP IIb IIIa (setting [4]) turned out to be 0.01 µM; on GP IIb IIIa (setting [7]) it was 0.012 µM; in test [2] (setting [5]), 0.49 µM.
In the case of `CCCCC(=O)Nc1cccc(CN2C(=O)CN(CCC(=O)O)C(=O)c3cc(CCCCCCN)ccc32)c1` [Cmpd 123], the IC50 at GP IIb IIIa (setting [4]) came out at 0.015 µM; on GP IIb IIIa (setting [7]) it was 0.015 µM; in test [2] (setting [5]) it was 0.64 µM.
For the molecule `CCCCC(=O)Nc1cccc(CN2C(=O)CN(CCC(=O)O)C(=O)c3cc(CCCCCCNC(=N)N)ccc32)c1` [Cmpd 124], the values for the IC50 (at GP IIb IIIa (setting [4]); at GP IIb IIIa (setting [7]); in test [2] (setting [5])) were 0.012 µM, 0.012 µM and 2.76 µM, respectively.
As for `N=C(N)Nc1ccc(C(=O)Nc2cccc(CN3C(=O)CN(CCC(=O)O)C(=O)c4cc(CCCCCCN)ccc43)c2)cc1` [Cmpd 127, 1-(3-(4-guanidinobenzoyl)aminophenyl)methyl-4-(2-carboxyethyl)-7-(6-aminohexyl)-3,4-dihydro-1H-1,4-benzodiazapine-2,5-dione], the IC50 stood at 0.008 µM at GP IIb IIIa (setting [4]), 0.008 µM on GP IIb IIIa (setting [7]) and 0.35 µM in test [2] (setting [5]).
